The record followed here is ChEMBL document CHEMBL5046249, “Synthesis, biological evaluation and cellular localization study of fluorescent derivatives of Jiyuan Oridonin A” (Eur J Med Chem, 2022).

In data set [1] the test system is TE-1. Description: Antiproliferative activity against human TE-1 cells assessed as inhibition of cell growth measured after 72 hrs by SRB assay. Format: functional, cell-based. The note with it: TE-1, 72 h. For orientation: The SRB assay estimates cell density from bound dye.
Data set [2] relates to HGC-27. The data set is described as follows: Induction of apoptosis in human HGC-27 cells assessed as increase in cleaved caspase-9 expression upto 2 uM measured after 24 hrs by Western blot analysis. The note with it: dose microM <=2, time 24.0 hrs. Format: functional, cell-based. (In western blotting, separated proteins are transferred to a membrane and probed.)
The nature of data set [3]: Drug uptake in human HGC-27 cells assessed as increase in fluorescence intensity by fluorescence microscopic analysis. Type of data set: ADME, cell-based. The note with it: dose 2-8 µM, time <=60 min.
For data set [4], the system named is HGC-27. The data set is described as follows: Induction of apoptosis in human HGC-27 cells assessed as increase in Bax expression upto 2 uM measured after 24 hrs by Western blot analysis. Type of data set: functional, cell-based. The note with it: dose microM <=2, time 24.0 hrs.
In data set [5] the test system is HGC-27. The data set is described as follows: Induction of mitochondrial membrane potential loss in human HGC-27 cells assessed as decrease in red fluorescence intensity upto 2 uM incubated for 24 hrs by TMRM dye based flow cytometric analysis. Format: functional, cell-based. The following applies: dose microM <=2, time 24.0 hrs. In general terms: In flow cytometry, cells or beads pass a laser one at a time.

Data set [6] concerns HGC-27. The data set is described as follows: Induction of apoptosis in human HGC-27 cells assessed as nuclear rupture at 0.5 to 2 uM by Hoechst 33342 staining based fluorescence assay. Format: functional, cell-based. The following applies: dose 0.5-2 µM.
Data set [7] is described as follows: Drug localization in nucleus of human HGC-27 cells at 2 uM incubated for 1 hr by DAPI staining based confocal laser microscopic analysis. Format: ADME, cell-based. The following applies: hgc-27, 1 h.
Data set [8] in a line: Drug uptake in human HGC-27 cells assessed as increase in fluorescence intensity of green signal at 8 uM measured after 1 hr by fluorescence microscopic analysis. The following applies: hgc-27, 1 h. Format: ADME, cell-based.
The test system of data set [9] is HGC-27. The data set is described as follows: Induction of apoptosis in human HGC-27 cells assessed as increase in total apoptotic cells by Hoechst 33342 staining based fluorescence assay. Format: functional, cell-based. The following applies: dose 0.5-2 µM.
In data set [10] the test system is HGC-27. Description: Antiproliferative activity against human HGC-27 cells assessed as inhibition of cell growth measured after 72 hrs by SRB assay. Format: functional, cell-based. The following applies: HGC-27, 72 h.
Data set [11] deals with SW1990. The data set is described as follows: Antiproliferative activity against human SW1990 cells assessed as inhibition of cell growth measured after 72 hrs by SRB assay. Type of data set: functional, cell-based. The note with it: SW1990, 72 h.
Data set [12] is described as follows: Drug localization in mitochondria of human HGC-27 cells at 2 uM incubated for 1 hr by Mitotracker red dye based confocal laser microscopy analysis. The following applies: hgc-27, 1 h. Format: ADME.
In data set [13] the test system is HGC-27. The data set is described as follows: Induction of apoptosis in human HGC-27 cells assessed as increase in cleaved caspase-3 expression upto 2 uM measured after 24 hrs by Western blot analysis. Format: functional, cell-based. The note with it: dose microM <=2, time 24.0 hrs.
The test system of data set [14] is HGC-27. The data set is described as follows: Induction of apoptosis in human HGC-27 cells assessed as nuclear cohesion at 0.5 to 2 uM by Hoechst 33342 staining based fluorescence assay. The note with it: dose 0.5-2 µM. Type of data set: functional, cell-based.
For data set [15], the system named is PC-3. The data set is described as follows: Antiproliferative activity against human PC-3 cells assessed as inhibition of cell growth measured after 72 hrs by SRB assay. Type of data set: functional, cell-based. The note with it: PC-3, 72 h.
Data set [16] relates to HGC-27. The data set is described as follows: Induction of apoptosis in human HGC-27 cells assessed as decrease in Bcl-2 expression upto 2 uM measured after 24 hrs by Western blot analysis. Type of data set: functional, cell-based. The following applies: dose microM <=2, time 24.0 hrs.
Data set [17] deals with MGC-803. The data set is described as follows: Antiproliferative activity against human MGC-803 cells assessed as inhibition of cell growth measured after 72 hrs by SRB assay. Type of data set: functional, cell-based. The note with it: MGC-803, 72 h.
The test system of data set [18] is HGC-27. The data set is described as follows: Induction of apoptosis in human HGC-27 cells assessed as increase in cytochrome-c expression upto 2 uM measured after 24 hrs by Western blot analysis. Type of data set: functional, cell-based. The following applies: dose microM <=2, time 24.0 hrs.
Data set [19] can be described thus: Cytotoxicity against human GES1 cells assessed as inhibition of cell growth measured after 72 hrs by SRB assay. Type of data set: toxicity, cell-based.
Data set [20] concerns HGC-27. The data set is described as follows: Inhibition of colony formation in human HGC-27 cells measured for 24 hrs by crystal violet staining based assay. Format: functional, cell-based. The following applies: dose microM <=2, time 24.0 hrs.
For data set [21], the system named is HGC-27. The data set is described as follows: Induction of apoptosis in human HGC-27 cells assessed as enhance brightness of fluorescence at 0.5 to 2 uM by Hoechst 33342 staining based fluorescence assay. Format: functional, cell-based. The note with it: dose 0.5-2 µM.
For data set [22], the system named is HGC-27. The data set is described as follows: Antimigratory activity against human HGC-27 cells assessed as inhibition of cell migration measured after 24 hrs by cell scratch assay. Type of data set: functional, cell-based. The note with it: dose microM <=2, time 24.0 hrs.

The source made the active and inactive calls. The rule behind the calls is not given here. Where only a bound is given, the exact number is not on record here.

Usually IC50 stands for the concentration at which inhibition is half-maximal. As for `C=C1C(=O)[C@]23[C@H](O)[C@H]1C[C@H](O)[C@H]2[C@]12CCCC(C)(C)[C@H]1C[C@H]3O[C@H]2OCCCCCc1cn(CCOCCOCCOCCN2C(=O)c3cccc4c(N5CCCCC5)ccc(c34)C2=O)nn1`, the IC50 stood at 0.73 µM in data set [1]; 0.39 µM in data set [10]; 0.86 µM in [11]; 0.68 µM in [15]; 0.64 µM in data set [17]. Besides, the outcome in data set [2], in [4], in data set [5], in data set [6], in [9] and in data set [13] was Active. The result in data set [14], in [16], in [18] and in [21] was Active. For the same compound, the Drug uptake result in data set [3] is “Dose-Dependent Effect and Tde”; in data set [7], “Not Active”; in data set [8], “Active”; in [12], “Active”. Also, the half-inhibitory concentration (IC50) at 72 h in [19] is 18.1 µM. Besides, the Activity result in data set [20] and in data set [22] was “Dose-Dependent Effect” in each case.

Regarding `C=C1C(=O)[C@]23[C@H](O)[C@H]1C[C@H](O)[C@H]2[C@]12CCCC(C)(C)[C@H]1C[C@H]3O[C@H]2O`, the half-maximal inhibitory concentration (IC50) in [1] was found to be 8.82 µM; in data set [10] it was 4.98 µM; in data set [11], 7.36 µM; in data set [15], 8.43 µM; in [17], 7.19 µM. Further, the Drug uptake entry in data set [8] is listed as “Not Active”.

Regarding `O=C1c2cccc3c(N4CCCCC4)ccc(c23)C(=O)N1CCOCCOCCOCCn1cc(CCCO)nn1`, the IC50 in [1], in data set [10], in [11], in data set [15] and in data set [17] was more than 32 µM throughout. In addition, in [8], the Drug uptake entry is “Not Active”.

On to `[N-]=[N+]=NCCOCCN1C(=O)c2cccc3c(N4CCCCC4)ccc(c23)C1=O`, for which the IC50 in data set [1], in data set [10], in data set [11], in [15] and in [17] was more than 32 µM throughout.

Regarding `C=C1C(=O)[C@]23[C@H](O)[C@H]1C[C@H](O)[C@H]2[C@]12CCCC(C)(C)[C@H]1C[C@H]3O[C@H]2OCCc1cn(CCCCCCN2C(=O)c3cccc4c(N5CCCCC5)ccc(c34)C2=O)nn1`, the IC50 was found to be 4.45 µM in data set [1]; 3.09 µM in data set [10]; 1.41 µM in data set [11]; 0.79 µM in data set [15]; 1.57 µM in data set [17].

Consider `C=C1C(=O)[C@]23[C@H](O)[C@H]1C[C@H](O)[C@H]2[C@]12CCCC(C)(C)[C@H]1C[C@H]3O[C@H]2OCCCCc1cn(CCOCCOCCOCCN2C(=O)c3cccc4c(N5CCCCC5)ccc(c34)C2=O)nn1`, for which the IC50 in [1] is 2.43 µM; in data set [10], 2.49 µM; in data set [11] it was 4.35 µM; in [15], 1.04 µM; in data set [17], 3.13 µM.
